What was measured:
α1B adrenoceptor = target: T1, α1B adrenoceptor (Rattus norvegicus, UniProt P15823); assay: Receptor binding assay, displacement of [3H]prazosin, rat liver membranes; conditions: [3H]prazosin displacement, rat liver membranes; read-out: α1B (Rat liver) Ki
T1 construct: from tissue; host or cells: rat liver membranes
T1 sequence (P15823 1-515): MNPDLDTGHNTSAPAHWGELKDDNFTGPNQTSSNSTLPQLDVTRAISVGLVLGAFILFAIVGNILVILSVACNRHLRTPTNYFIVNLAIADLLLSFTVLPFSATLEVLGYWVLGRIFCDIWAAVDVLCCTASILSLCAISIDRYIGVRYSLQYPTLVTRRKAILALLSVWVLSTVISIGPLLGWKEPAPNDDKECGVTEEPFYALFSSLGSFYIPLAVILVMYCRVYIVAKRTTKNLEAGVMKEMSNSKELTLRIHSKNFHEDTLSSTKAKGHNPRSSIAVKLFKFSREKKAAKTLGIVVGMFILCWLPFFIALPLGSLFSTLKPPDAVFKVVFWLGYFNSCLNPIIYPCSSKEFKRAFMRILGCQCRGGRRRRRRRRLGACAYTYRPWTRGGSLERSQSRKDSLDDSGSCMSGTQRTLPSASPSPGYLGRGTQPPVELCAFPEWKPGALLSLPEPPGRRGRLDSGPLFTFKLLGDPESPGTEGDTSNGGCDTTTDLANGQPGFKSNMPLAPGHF
Description: Receptor binding assays were performed using native α-adrenoceptors. The affinity of different compounds for α1A and α1B adrenoceptor subtypes was evaluated by studying their ability to displace specific [^3H]prazosin binding from the membranes of rat submaxillary and liver respectively (Michel et al, Br J Pharmacol, 98, 883-889 (1989)). The binding assays were performed according to U'Prichard et al. (Eur J Pharmacol, 50:87-89 (1978)) with minor modifications.
(§1) Submaxillary glands were isolated immediately after sacrifice. The liver was perfused with buffer (Tris HCl 50 mM, NaCl 100 mM, 10 mM EDTA pH 7.4). The tissues were homogenised in 10 volumes of buffer (Tris HCl 50 mM, NaCl 100 mM, EDTA 10 mM, pH 7.4). The homogenate was filtered through two layers of wet gauze and filtrate was centrifuged at 500 g for 10 min. The supernatant was subsequently centrifuged at 40,000 g for 45 min. The pellet thus obtained was resuspended in the same volume of assay buffer (Tris HCl 50 mM, EDTA 5 mM, pH 7.4) and were stored at −70° C. until the time of assay.
(§2) The membrane homogenates (150-250 μg protein) were incubated in 250 μl of assay buffer (Tris HCl 50 mM, EDTA 5 mM, pH 7.4) at 24-25° C. for 1 h. Non-specific binding was determined in the presence of 300 nM prazosin. The incubation was terminated by vacuum filtration over GF/B fibre filters. The filters were then washed with ice cold 50 mM Tris HCl buffer (pH 7.4). The filtermats were dried and bound radioactivity retained on filters was counted.The IC50 & Kd were estimated by using the non-linear curve fitting program using G Pad Prism software. The value of inhibition constant Ki was calculated from competitive binding studies by using Cheng & Prusoff equation (Cheng & Prusoff, Biochem Pharmacol, 1973,22: 3099-3108), Ki=IC50/(1+L/Kd) where L is the concentration of [^3H]prazosin used in the particular experiment (Table I).

α1A adrenoceptor = target: T2, α1A adrenoceptor (Rattus norvegicus, UniProt P43140); assay: Receptor binding assay, displacement of [3H]prazosin, rat submaxillary membranes; conditions: for Ki: [3H]prazosin displacement, rat submaxillary membranes, read-out: α1A (Rat submaxillary) Ki; for Selectivity α1B/α1A: ratio of Ki α1B (rat liver) / α1A (rat submaxillary)
T2 construct: from tissue; host or cells: rat submaxillary gland membranes
T2 sequence (P43140 1-466): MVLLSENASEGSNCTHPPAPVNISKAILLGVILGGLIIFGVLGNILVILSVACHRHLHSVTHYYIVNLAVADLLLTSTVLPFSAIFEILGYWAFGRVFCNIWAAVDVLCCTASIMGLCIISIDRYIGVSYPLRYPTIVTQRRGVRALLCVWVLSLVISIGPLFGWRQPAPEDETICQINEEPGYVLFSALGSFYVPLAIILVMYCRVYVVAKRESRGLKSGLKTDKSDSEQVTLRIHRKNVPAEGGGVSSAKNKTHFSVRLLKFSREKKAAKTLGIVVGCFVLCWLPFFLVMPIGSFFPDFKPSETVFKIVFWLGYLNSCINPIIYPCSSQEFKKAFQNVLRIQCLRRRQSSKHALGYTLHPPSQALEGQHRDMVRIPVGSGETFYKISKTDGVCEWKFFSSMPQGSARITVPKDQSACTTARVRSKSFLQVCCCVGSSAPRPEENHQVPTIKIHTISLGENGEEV
Description: Receptor binding assays were performed using native α-adrenoceptors.
as §1
as §2, with “software.” for “software. The value of inhibition constant Ki was calculated from competitive binding studies by using Cheng & Prusoff equation (Cheng & Prusoff, Biochem Pharmacol, 1973,22: 3099-3108), Ki=IC50/(1+L/Kd) where L is the concentration of [^3H]prazosin used in the particular experiment (Table I).”

[1] = target: T3, α1B adrenoceptor (spleen) (Rattus norvegicus, UniProt P15823); assay: In vitro functional study, antagonism of phenylepinephrine-induced contraction of spleen; format: biochemical; conditions: tested compound at 0.1, 1 and 10 mM, read-out: α Adrenoceptor Subtype (pKB) α1B (converted)
T3 construct: Isolated tissues were mounted in organ bath containing Krebs Henseleit buffer; from tissue; host or cells: isolated spleen of male wistar rats
T3 sequence (P15823 1-515): T1 sequence (P15823 1-515)
Text: (§3) In order to study selectivity of action of these compounds towards different α-adrenoceptor subtypes, the ability of these compounds to antagonise α1-adrenoceptor agonist induced contractile response on aorta (α1Dprostate (α1A and spleen (α1B was studied. Aorta and spleen tissues were isolated from urethane anaesthetised (1.5 gm/kg) male wistar rats. Isolated tissues were mounted in organ bath containing Krebs Henseleit buffer of following composition (mM): NaCl 118; KCl 4.7; CaCl2 2.5; MgSO4. 7H2O 1.2; NaHCO3 25; KH2PO41.2; glucose 11.5. Buffer was maintained at 37° C. and aereated with a mixture of 95% O2 and 5% CO2. A resting tension of 2 g (aorta) or 1 g (spleen and prostate)was applied to tissues. Contractile response was monitored using a force displacement transducer and recorded on chart recorders. Tissues were allowed to equilibrate for 2 hours. At the end of equilibration period, concentration response curves to norepinephrine (aorta) and phenylepinephrine (spleen and prostate) were obtained in absence and presence of tested compound (at concentration of 0.1,1 and 10 mM). Antagonist affinity was calculated and expressed as pKB vales in Table II.

α1D adrenoceptor (aorta) = target: T4, α1D adrenoceptor (aorta) (Rattus norvegicus, UniProt P23944); assay: In vitro functional study, antagonism of norepinephrine-induced contraction of aorta; format: biochemical; conditions: tested compound at 0.1, 1 and 10 mM, read-out: α Adrenoceptor Subtype (pKB) α1D (converted)
T4 construct: Isolated tissues were mounted in organ bath containing Krebs Henseleit buffer; from tissue; host or cells: isolated aorta of male wistar rats
T4 sequence (P23944 1-561): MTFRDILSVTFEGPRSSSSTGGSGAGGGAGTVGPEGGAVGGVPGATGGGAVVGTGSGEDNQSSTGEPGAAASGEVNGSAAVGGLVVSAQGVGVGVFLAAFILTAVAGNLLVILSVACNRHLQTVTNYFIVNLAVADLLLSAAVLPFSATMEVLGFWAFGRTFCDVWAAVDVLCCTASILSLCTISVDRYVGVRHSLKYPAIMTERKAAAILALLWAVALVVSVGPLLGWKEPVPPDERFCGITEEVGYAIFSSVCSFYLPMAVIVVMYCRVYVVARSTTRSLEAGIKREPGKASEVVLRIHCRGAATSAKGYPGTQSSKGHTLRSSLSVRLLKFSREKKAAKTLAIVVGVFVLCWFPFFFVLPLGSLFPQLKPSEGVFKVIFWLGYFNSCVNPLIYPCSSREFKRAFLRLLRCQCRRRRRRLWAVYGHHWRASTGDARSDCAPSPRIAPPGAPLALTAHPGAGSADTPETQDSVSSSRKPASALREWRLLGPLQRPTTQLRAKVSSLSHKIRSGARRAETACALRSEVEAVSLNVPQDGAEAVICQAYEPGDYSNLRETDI
Text: as §3

[2] = target: T5, α1A adrenoceptor (prostate) (Rattus norvegicus, UniProt P43140); assay: In vitro functional study, antagonism of phenylepinephrine-induced contraction of prostate; format: biochemical; conditions: for Selectivity α1A/α1B / Selectivity α1A/α1D: functional assays, from pKB values; for Kb: prostate, phenylepinephrine, tested compound at 0.1, 1 and 10 mM, read-out: α Adrenoceptor Subtype (pKB) α1A (converted)
T5 construct: from tissue; host or cells: isolated prostate tissue
T5 sequence (P43140 1-466): T2 sequence (P43140 1-466)
Text: as §3

Ki (α1B adrenoceptor) [nM]	Ki (α1A adrenoceptor) [nM]	Selectivity α1B/α1A (α1A adrenoceptor)	Kb [1] [nM]	Kb (α1D adrenoceptor (aorta)) [nM]	Selectivity α1A/α1B [2]	Selectivity α1A/α1D [2]	Kb [2] [nM]	melting point [°C]	SMILES
62	0.3	207	15.8	2.51	23	3.6	0.676	232.5 to 233.5	CCc1ccccc1N1CCN(CCCN2C(=O)C3CC=CCC3C2=O)CC1.Cl (stereo not drawn) [Compound 09, 2-[3-{4-(2-Ethylphenyl)piperazin-1-yl}propyl]-3a,4,7,7a-tetrahydro-1H-isoindole-1,3(2H)-dione hydrochloride]
384	6.3	61	813	51.3	89	5.6	9.12	231 to 232	Cl.O=C1C2CC=CCC2C(=O)N1CCCN1CCN(c2ccccc2)CC1 (stereo not drawn) [Compound 13, 2-[3-{4-(Phenyl)piperazin-1-yl}propyl]-3a,4,7,7a-tetrahydro-1H-isoindole-1,3(2H)-dione hydrochloride]

Source: patent US6914064B2, “1,4-Disubstituted piperazine derivatives useful as uro-selective α1-adrenoceptor blockers” (Ranbaxy Laboratories Limited, priority 2000, dated 2005)
